This note sets out measurements from US10617656B2, “Methods of increasing the cytotoxicity of chemotherapeutic agents with multisubstrate inhibitors of histone, protein-Lys, polyamine acetylation, and polyamine metabolism” (Vanderbilt University, priority 2010, dated 2020).

For orientation: viability means the share of living cells, or the viability signal relative to a control.

Structures are written as SMILES. Where only a bound is given, the exact number is not on record here.

Data set [1] relates to histone H3 lysine 9 acetylation in H358 cells. Kind of data set: Western analysis of histone H3 acetylation/methylation in H358 cells. The data set is classed as cell-based. The settings on record: 50 μM, 12 hours. As for the experimental part:
(A) Structures of 1a, and the acetylated side chain of a lysine residue within the polypeptide chain of a protein targeted by the acetylating enzyme (R1 and R2 are the main chain elements on both sides of the lysyl residue). (B) [^3H]-thymidine incorporation into DNA of H358 cells pulsed for 6 hrs at three different time points after the addition of increasing concentrations of 1a, i.e., at 6-12 hrs (12 hr curve), at 18-24 hours (24 hr curve), or at 42-48 hrs (48 hr curve). Incorporation is represented as a percentage relative to control (untreated) cells. (C) Cell cycle analysis of propidium iodide-stained cells harvested at various times after addition of 50 μM 1a. % of cells in G1, S, and G2 represents the average of two independent profiles. (D) Western analysis of histone H3 lysine 9 acetylation, histone H3 lysine 56 acetylation, histone H3 lysine 9 methylation, and total histone H3, before “c” or at the indicated times after addition of 50 μM 1a. Each lane represents 60 μg cellular protein.
Each lane represents 175 μg cell lysate protein.
One 6 cm culture dish of H358 cells per treatment was used. Cells were treated with 50 μM spm-2, spm-3, or spd-3a for 12 hours. Histones were extracted from cells in 0.2M H2SO4 (as described in Furuta, T., et al (2003) J. Biol. Chem. 278: 20303-20312), followed by SDS-PAGE and Western blotting. Blots were probed with anti-acetyl histone H3-lysine 9 (Upstate Biotechnology, Inc.)
Cells were lysed by adding 1 mL of 0.2 M H2SO4. […]
One 10-cm plate of H358 lung cancer cells (about 2×10^6 cells), grown in DMEM+10% Fetal bovine serum as described in reference, were treated for 24 hours with 50 μM 1a inhibitor. […] Treated cells and untreated (control) cells were harvested by lysing in buffer containing 10 mM Hepes pH 7.5, 100 mM NaCl, 300 mM sucrose, 3 mM MgCl2, 1 mM EDTA, 1 mM DTT, 0.5% Triton X-100, 1 mM PMSF, protease inhibitor pellet (Roche) and analyzed on 10% SDS-PAGE gels, followed by Western immunoblot analysis of total histone H3, methylated histone H3 (methylated on lysine 9), and acetylated histone H3 (acetylated on lysine 9). […]

The test system of a further data set is GT41F skin fibroblasts. Kind of data set: 96-well MTS viability assay, GT41F fibroblasts. The settings on record: spm single agent, 3 days. The data set is classed as cell-based, human. As for the experimental part:
(§1) Cells were plated in 96-well plates at 2000 cells per well and treated with the indicated doses of spd-3a. Cell viability was measured by the MTS assay 3 days later.
(§2) DLD-1 cells or H358 cells were plated in 96-well plates at 2000 cells per well and treated with the indicated doses of (A) spm-3 or (B) spm-2. (C) Cell viability was measured by the MTS assay 3 days later. Similar experiment using GT41 fibroblasts with spm2 or spm 3. Each assay point represents an average of duplicates.
On the technique in general: Tetrazolium dyes change colour on reduction, which living cells bring about.

In the next data set the test system is DLD-1 colon cancer cells. Kind of data set: 96-well MTS viability assay, DLD-1. The data set is classed as cell-based. The settings on record: single agent, 3 days. Here is the method: as §1, §2
A further data set deals with H358 cells. Kind of data set: Trypan blue exclusion viability assay. The data set is classed as cell-based.
The test system of data set [2] is thymidine dimers in DNA of H358 cells. Kind of data set: Nucleotide excision repair assay (thymidine dimer slot blot) after UVC. The data set is classed as cell-based. Conditions: 50 μM 1a, 24 hours after 40 J/m^2 UVC (untreated: 50%). Here is the method: Also shown are controls for no treatment (“c” minus 1a) or treatment with 1a only (“c” plus 1a). Each lane represents 60 μg protein. […] Each lane represents 60 μg protein.
For NER, a slot blot immunoassay was used to detect the loss of thymidine dimers from the DNA of UVC treated cells as previously described. An antibody specific for cyclobutane pyrimidine dimers, the major photoproduct produced by UVC treatment, was purchased from Kamiya Biomedical Co (Seattle, Wash.; anti-thymidine dimer, clone KTM53) and used at 1:40 dilution.

Consider `CC(=O)NCCSCC(=O)NCCCNCCCCNCCCN` [spm-3], for which, in data set [1], the “histone H3K9 acetylation (Western)” value was “suppress histone acetylation”. For the same molecule, in the data set with GT41F skin fibroblasts, the “sensitivity of normal fibroblasts” value is recorded as “sensitivity similar to that of H358 lung cancer cells”. Also, the “suppression of cancer cell growth and viability” value with DLD-1 colon cancer cells is “effective as single agents”.

Consider `CC(C)(COP(=O)(O)OP(=O)(O)OC[C@H]1O[C@@H](n2cnc3c(N)ncnc32)[C@H](O)[C@@H]1OP(=O)(O)O)[C@@H](O)C(=O)NCCC(=O)NCCSCC(=O)NCCCNCCCCN` [1a, spermidine[N1]-CoA], for which the viability at 50 µM in the data set on H358 cells (Homo sapiens, NCI-H358, 18 h, read-out: cell viability, single agent) was not below 96%. Further, in the data set with H358 cells (human, 24 h), the “cell viability, single agent” value is listed as not below 96%. Besides, the “decrease of thymidine dimers” value in data set [2] worked out at 40%.
